The subject of data set [1] is Mus musculus. Put plainly: Effect of compound in C57BL/6 mouse catalepsy model assessed as no catalepsy at 150 mg/kg, po bid administered for every 4 hrs. Type of data set: functional, organism-based.
Data set [2] addresses D-amino-acid oxidase (Mus musculus, UniProt P18894). The data set is described as follows: Inhibition of full length mouse DAO transfected with CHO-K1 cells incubated for 30 mins by Amplex red and horseradish peroxidase based fluorescence assay. Type of data set: cell-based.
The target of data set [3] is T1, Prostaglandin G/H synthase 2 (Homo sapiens, UniProt P35354).
T1 sequence (P35354 whole entry): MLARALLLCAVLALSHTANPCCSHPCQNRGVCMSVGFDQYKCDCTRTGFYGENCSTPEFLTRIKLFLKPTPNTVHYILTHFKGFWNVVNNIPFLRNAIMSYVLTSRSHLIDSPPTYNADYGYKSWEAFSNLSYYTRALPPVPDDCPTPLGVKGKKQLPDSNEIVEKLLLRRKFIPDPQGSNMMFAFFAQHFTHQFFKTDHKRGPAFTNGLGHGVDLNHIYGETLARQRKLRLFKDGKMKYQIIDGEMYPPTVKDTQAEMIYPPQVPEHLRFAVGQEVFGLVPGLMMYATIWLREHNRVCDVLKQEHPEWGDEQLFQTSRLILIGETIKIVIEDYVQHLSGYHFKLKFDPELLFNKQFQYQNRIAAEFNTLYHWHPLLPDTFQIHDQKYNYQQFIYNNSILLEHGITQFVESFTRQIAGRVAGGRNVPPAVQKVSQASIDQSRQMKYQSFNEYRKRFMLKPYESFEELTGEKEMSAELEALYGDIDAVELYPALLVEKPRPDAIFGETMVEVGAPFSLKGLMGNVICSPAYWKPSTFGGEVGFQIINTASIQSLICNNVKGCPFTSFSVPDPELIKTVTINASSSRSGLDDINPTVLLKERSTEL
Put plainly: Inhibition of human COX2.

For data set [4], the target named is T2, Polyunsaturated fatty acid 5-lipoxygenase (Homo sapiens, UniProt P09917).
T2 sequence (P09917 whole entry): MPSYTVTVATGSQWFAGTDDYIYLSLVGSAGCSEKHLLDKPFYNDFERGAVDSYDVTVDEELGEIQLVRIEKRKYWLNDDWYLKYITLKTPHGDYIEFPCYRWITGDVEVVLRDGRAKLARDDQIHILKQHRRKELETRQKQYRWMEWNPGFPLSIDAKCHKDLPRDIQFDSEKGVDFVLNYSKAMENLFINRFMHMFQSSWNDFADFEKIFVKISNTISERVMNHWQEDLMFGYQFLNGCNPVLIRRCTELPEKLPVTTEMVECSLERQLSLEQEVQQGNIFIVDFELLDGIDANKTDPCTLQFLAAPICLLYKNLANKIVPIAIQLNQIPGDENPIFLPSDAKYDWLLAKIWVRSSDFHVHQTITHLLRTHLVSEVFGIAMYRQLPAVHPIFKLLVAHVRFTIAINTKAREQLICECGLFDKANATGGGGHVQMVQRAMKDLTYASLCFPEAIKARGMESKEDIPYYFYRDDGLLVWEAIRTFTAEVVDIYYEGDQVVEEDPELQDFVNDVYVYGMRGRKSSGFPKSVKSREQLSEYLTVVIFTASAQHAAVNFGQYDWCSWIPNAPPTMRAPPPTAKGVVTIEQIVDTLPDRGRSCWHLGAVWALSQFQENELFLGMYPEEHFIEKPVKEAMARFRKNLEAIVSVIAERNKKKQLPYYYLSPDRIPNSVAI
The data set is described as follows: Inhibition of human recombinant 5-LOX incubated for 5 mins by fluorimetry.

The next data set deals with T3, Adenosine receptor A3 (Homo sapiens, UniProt P0DMS8).
T3 sequence (P0DMS8 whole entry): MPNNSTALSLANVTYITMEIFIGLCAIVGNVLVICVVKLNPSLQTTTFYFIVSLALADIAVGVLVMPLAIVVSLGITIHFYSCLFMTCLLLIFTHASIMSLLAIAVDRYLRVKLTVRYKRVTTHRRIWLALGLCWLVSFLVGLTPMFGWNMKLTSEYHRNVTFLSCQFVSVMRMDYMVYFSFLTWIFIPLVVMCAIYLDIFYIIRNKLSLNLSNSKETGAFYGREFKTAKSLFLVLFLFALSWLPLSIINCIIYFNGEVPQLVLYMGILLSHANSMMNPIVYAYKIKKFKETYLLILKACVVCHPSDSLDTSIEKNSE
The data set is described as follows: Inhibition of recombinant human adenosine A3 GPCR incubated for 120 mins by scintillation counting based radiometry assay.

The target of the next data set is T4, Glucocorticoid receptor (Homo sapiens, UniProt P04150).
T4 sequence (P04150 whole entry): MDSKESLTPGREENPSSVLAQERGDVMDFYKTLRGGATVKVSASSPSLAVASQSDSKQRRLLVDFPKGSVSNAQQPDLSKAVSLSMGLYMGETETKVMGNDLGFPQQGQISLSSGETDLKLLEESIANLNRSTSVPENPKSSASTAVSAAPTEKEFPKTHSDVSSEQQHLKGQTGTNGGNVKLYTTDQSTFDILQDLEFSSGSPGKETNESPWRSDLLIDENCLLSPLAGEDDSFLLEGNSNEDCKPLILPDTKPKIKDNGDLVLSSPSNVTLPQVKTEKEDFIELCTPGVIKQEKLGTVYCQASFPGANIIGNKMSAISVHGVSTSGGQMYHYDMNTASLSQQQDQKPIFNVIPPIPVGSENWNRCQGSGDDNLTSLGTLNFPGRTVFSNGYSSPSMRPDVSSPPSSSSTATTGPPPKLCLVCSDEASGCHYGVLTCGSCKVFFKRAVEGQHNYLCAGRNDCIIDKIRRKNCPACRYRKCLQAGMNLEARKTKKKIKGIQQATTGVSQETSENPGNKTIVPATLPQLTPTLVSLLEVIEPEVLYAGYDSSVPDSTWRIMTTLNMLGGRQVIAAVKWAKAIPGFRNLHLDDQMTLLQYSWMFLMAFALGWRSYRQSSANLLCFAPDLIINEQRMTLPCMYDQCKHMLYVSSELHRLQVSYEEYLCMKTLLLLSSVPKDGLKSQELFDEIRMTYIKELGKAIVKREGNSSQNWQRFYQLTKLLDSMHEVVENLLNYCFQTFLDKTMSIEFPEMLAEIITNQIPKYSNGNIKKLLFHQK
The data set is described as follows: Inhibition of GR human glucocorticoid NHR incubated for 360 mins by scintillation counting based radiometry assay.

Data set [5] addresses T5, Peroxisome proliferator-activated receptor gamma (Homo sapiens, UniProt P37231).
T5 sequence (P37231 whole entry): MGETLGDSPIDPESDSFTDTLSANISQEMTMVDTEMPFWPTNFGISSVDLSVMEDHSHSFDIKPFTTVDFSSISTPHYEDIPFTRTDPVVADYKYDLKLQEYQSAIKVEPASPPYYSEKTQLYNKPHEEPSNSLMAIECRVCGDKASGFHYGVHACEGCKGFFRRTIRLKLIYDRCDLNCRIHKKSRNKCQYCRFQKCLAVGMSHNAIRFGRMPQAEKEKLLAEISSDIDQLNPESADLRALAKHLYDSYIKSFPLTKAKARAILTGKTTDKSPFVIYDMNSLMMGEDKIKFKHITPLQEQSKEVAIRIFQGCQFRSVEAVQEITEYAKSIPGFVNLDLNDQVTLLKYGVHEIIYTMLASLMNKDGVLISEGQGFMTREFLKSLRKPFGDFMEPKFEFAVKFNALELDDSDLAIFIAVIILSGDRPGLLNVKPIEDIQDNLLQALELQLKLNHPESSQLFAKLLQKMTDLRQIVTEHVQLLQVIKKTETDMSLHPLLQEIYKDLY
The data set is described as follows: Inhibition of recombinant human PPAR gamma NHR incubated for 120 mins by scintillation counting based radiometry assay.

The nature of data set [6]: In vivo receptor occupancy at DAO in C57BL/6 mouse cerebellum at 150 mg/kg, po measured after 4 hrs relative to control. The data set is classed as functional.
Data set [7] is described as follows: In vivo receptor occupancy at DAO in C57BL/6 mouse cerebellum at 150 mg/kg, po measured after 6 hrs relative to control. The data set is classed as functional.
Data set [8] is described as follows: In vivo receptor occupancy at DAO in C57BL/6 mouse cerebellum at 150 mg/kg, po measured after 10 hrs relative to control. The data set is classed as functional.
Data set [9] relates to Mus musculus. Put plainly: Effect of compound in C57BL/6 mouse catalepsy model assessed as decrease in plasma prolactin level at 150 mg/kg, po bid administered for every 4 hrs. The data set is classed as functional, organism-based.
Data set [10] is described as follows: Unbound drug concentration in C57Bl/6 mouse brain at 2 mg/kg, po or 0.5 mg/kg,iv by LC-MS-MS analysis. Type of data set: ADME, organism-based. The conditions noted are these: C57Bl/6, mouse, brain.
For data set [11], the target named is D-amino-acid oxidase (Homo sapiens, UniProt P14920). The data set is described as follows: Inhibition of recombinant full length human DAO preincubated with compound for 20 mins measured after 4 hrs by Amplex red and horseradish peroxidase based fluorescence assay.
Data set [12] is described as follows: Apparent permeability across apical to basolateral membrane in MDCK-MDR1 cells by LC-MS/MS analysis. The note with it: dog.
A short description of data set [13]: Efflux ratio of apparent permeability across basolateral to apical side over apical to basolateral side in MDCK-MDR1 cells. The note with it: dog.
Data set [14] can be described thus: Volume of distribution at steady state in C57/BL6 mouse at 2 mg/kg, po or 0.5 mg/kg,iv by LC-MS-MS analysis. The data set is classed as ADME, organism-based. The conditions noted are these: in vivo.
Data set [15] can be described thus: Half life in C57/BL6 mouse at 0.5 mg/kg,iv by LC-MS-MS analysis. The data set is classed as ADME, organism-based. The conditions noted are these: in vivo.
The nature of data set [16]: Dose normalized AUC in C57/BL6 mouse at 2 mg/kg, po by LC-MS-MS analysis. The data set is classed as ADME, organism-based. The note with it: in vivo.
Data set [17] is described as follows: Oral bioavailability in C57/BL6 mouse at 2 mg/kg by LC-MS-MS analysis. The note with it: in vivo. Type of data set: ADME, organism-based.
A short description of data set [18]: Brain to plasma permeability coefficient, Kp in C57Bl/6 mouse 2 mg/kg, po or 0.5 mg/kg,iv by LC-MS-MS analysis. The data set is classed as ADME, organism-based. The note with it: C57Bl/6, mouse, brain and plasma, read-out: Kp.
The nature of data set [19]: Unbound drug concentration in C57Bl/6 mouse plasma at 2 mg/kg, po or 0.5 mg/kg,iv by LC-MS-MS analysis. Type of data set: ADME, organism-based. The note with it: C57Bl/6, mouse, plasma.
Data set [20] in a line: Unbound brain-to-plasma concentration ratio in C57Bl/6 mouse at 2 mg/kg, po or 0.5 mg/kg,iv by LC-MS-MS analysis. Type of data set: ADME, organism-based. The conditions noted are these: C57Bl/6, mouse, brain and plasma, read-out: K(p,uu,brain).

The values that follow come from ChEMBL document CHEMBL5154896, “Discovery of a Novel Class of d-Amino Acid Oxidase Inhibitors Using the Schrödinger Computational Platform” (J Med Chem, 2022).

Calls of active or inactive are those of the source.

D-amino-acid oxidase (Mus musculus, UniProt P18894), sequence (P18894 whole entry): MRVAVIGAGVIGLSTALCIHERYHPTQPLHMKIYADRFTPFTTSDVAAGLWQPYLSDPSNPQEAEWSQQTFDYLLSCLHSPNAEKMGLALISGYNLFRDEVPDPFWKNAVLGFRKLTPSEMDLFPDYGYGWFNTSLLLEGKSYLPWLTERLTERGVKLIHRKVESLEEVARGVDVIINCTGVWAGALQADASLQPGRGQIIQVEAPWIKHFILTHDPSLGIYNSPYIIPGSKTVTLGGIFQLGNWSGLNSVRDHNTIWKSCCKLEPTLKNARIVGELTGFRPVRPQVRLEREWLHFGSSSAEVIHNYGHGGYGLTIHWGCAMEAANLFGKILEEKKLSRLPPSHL
D-amino-acid oxidase (Homo sapiens, UniProt P14920), sequence (P14920 whole entry): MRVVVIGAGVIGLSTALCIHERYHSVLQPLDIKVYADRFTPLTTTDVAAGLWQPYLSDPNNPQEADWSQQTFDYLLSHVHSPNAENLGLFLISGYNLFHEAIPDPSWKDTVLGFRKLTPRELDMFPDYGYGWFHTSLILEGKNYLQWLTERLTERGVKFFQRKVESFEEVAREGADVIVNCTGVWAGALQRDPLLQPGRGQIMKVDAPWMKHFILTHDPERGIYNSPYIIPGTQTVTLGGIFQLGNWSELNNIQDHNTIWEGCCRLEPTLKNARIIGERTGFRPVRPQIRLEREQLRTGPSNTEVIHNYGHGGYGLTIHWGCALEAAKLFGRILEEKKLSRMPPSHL

Take `O=c1[nH]cc(CSc2ccc(C(F)(F)F)cc2)[nH]c1=O`: the result with Mus musculus [1] and in the data set with Mus musculus [9] was Active. Further, it took 0.51 µM to reach a half-maximal effect at D-amino-acid oxidase [2] (EC50). Further, the IC50 (in data set [3]; in data set [4]; on Adenosine receptor A3; at Glucocorticoid receptor; in data set [5]) was over 10 µM each time. Besides, the values for the Activity in data set [6], in data set [7] and in data set [8] were 75%, 86% and 59%, respectively.
Turning to `O=c1[nH]c2ccsc2[nH]c1=O`, the fraction unbound (in general, the share of the substance not bound to proteins or other matrix) in data set [10] came out at 0.26; in [19] it was 0.22. In addition, at D-amino-acid oxidase [11], the IC50 (commonly the point on the concentration scale where inhibition reaches its midpoint) was found to be 0.12 µM. Moreover, the Papp A→B – broadly, how fast a substance crosses the layer from the apical side – in [12] was found to be 8.8 ×10⁻⁶ cm/s. Besides, in data set [13], the efflux ratio (in general, the permeability from basolateral to apical divided by that in the opposite direction, in the common usage) turned out to be 0.8. For the same compound, the Vdss in data set [14] came out at 0.2 L/kg. Also, the half-life – broadly, the time needed for the level to fall by half in the phase considered – in data set [15] is 1.2 h. This compound also showed an AUC/dose in data set [16] of 6266 ng·h/mL. The bioavailability (in general, the share of a dose that reaches the circulation, judged against a reference dose that is usually intravenous) in data set [17] is 34%. Further, in data set [18], the Kp (as a rule, tissue or fluid exposure divided by exposure in the circulation) stood at 0.004. In addition, the Kp uu in data set [20] amounted to 0.005.
In the case of `O=c1[nH]cc(CSc2ccc(C(F)F)cc2)[nH]c1=O`, at D-amino-acid oxidase [2], it took 0.62 µM to reach a half-maximal effect (EC50). The IC50 (in data set [3]; in data set [4]; on Adenosine receptor A3; on Glucocorticoid receptor; in data set [5]) was over 10 µM throughout.
